Tested on: mice NK cell
Experiment: Mice NK cell activity in vivo (i.p. dosing 20 days, spleen effector cells vs YAC-1 target cells, MTT)
Parameters: species or system BALB/c mice
Conditions: for NK cell activity (%): Table 8, saline 76.0 ± 4.3
Method: Animals were randomized into two peptide groups (200 μg/kg/day and 50 μg/kg/day), Cyclosporine A group (10 mg/kg/day), and saline group (0.5 ml/day). Each group contained 10 mice, in which half were female and half were male. All test substances were dissolved in 0.5 ml saline and administered intraperitoneally once per day for 20 days. T-lymphocyte transformation and NK cell activity were examined on the day immediately following the last injection. YAC-1 target cells were brought to log phase and adjusted to a density of 1×10^5/ml. Mice spleen cells prepared in section 2.2.2 above were adjusted to a density of 4×10^6/ml and used as effector cells. The cell suspensions were inoculated onto 96 wells cell culture plates as follows: Effector cell wells: 100 μl spleen cell suspension+100 μl RPMI-1640 Assay wells: 100 μl spleen cell suspension+100 μl YAC-1 cell suspension Target cell wells: 100 μl YAC-1 cell suspension+100 μl RPMI-1640 Three assay wells and three effector cell wells were set up for each animal, and 12 target cell wells were set up per cell culture plate. The plates were incubated at 37° C., 5% CO2 for 4 hours, then MTT was added and the plates were read at OD 570 nm referenced at 630 nm with ELISA reader. NK cell activity (%)=1−[(assay wells OD−effector cell wells OD)/target cell wells OD]×100%

Substance: PLNPK [CMS-010.26]
- NK cell activity (%) (50 μg/kg/day i.p. 20 days): 68.5 ± 7.2 %
- NK cell activity (%) (200 μg/kg/day i.p. 20 days): 67.7 ± 5.3 %
- Effect on mice NK cell activity in vivo (suppression) (at suitable dosage, vs saline control P<0.05): suppress
